Reference: PubChem BioAssay AID1408 (University of Pittsburgh Molecular Library Screening Center, 2008)

Target: Serine/threonine-protein kinase D1 (Homo sapiens) (UniProt Q15139)
Assay: PKD1 kinase inhibitors, IC50 values, dose response, biochemical, fluorescence polarization (AID 1408)
Settings: not given

Serine/threonine-protein kinase D1 (Homo sapiens), sequence (Q15139 whole entry, looked up): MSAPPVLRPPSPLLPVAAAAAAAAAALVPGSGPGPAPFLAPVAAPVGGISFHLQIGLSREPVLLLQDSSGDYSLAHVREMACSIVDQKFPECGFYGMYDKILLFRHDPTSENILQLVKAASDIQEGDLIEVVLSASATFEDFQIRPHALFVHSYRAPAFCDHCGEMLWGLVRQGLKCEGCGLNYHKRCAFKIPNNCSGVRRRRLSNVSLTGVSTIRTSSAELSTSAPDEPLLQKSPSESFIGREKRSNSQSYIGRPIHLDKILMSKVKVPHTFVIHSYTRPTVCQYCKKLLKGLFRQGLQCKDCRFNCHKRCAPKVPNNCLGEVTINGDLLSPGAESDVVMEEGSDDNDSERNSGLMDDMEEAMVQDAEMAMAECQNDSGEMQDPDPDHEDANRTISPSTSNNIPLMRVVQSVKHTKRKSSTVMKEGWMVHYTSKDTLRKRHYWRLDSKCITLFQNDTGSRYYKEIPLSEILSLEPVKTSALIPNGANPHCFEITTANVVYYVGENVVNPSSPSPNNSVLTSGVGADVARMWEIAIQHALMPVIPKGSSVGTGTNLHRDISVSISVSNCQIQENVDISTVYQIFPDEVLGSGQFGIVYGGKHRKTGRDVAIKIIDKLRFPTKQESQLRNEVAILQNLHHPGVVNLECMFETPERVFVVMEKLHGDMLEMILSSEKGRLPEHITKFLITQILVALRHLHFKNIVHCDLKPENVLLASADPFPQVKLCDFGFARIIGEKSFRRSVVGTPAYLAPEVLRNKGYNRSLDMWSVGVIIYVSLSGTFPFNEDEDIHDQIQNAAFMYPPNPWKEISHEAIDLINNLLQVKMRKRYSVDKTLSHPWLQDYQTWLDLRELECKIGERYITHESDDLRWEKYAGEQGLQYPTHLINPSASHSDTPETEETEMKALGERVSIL

SMILES	IC50
C/C(=N\Nc1ncc(Cl)cc1Cl)c1ccccn1	9.31 µM
Clc1cncc(Cl)c1N/N=C/c1ccncc1	9.61 µM

Same assay, conditions: inhibition, at 50 µM, stronger effect = higher value

SMILES	inhibition
O=[N+]([O-])c1ccc(Nc2c3ccccc3nc3ccccc23)cc1	-1.2%
CCC1=NNc2cccc3c(OC)ccc1c23	67%
CC(=O)Oc1cc(OC(C)=O)c2c(C)cc(=O)oc2c1	29%
COc1ccc(CNC(=O)C2Cc3ccccc3CN2C(=O)c2ccco2)cc1 (stereo unspecified)	9.09%
O=C(Nc1ccccc1C(=O)N1CCCC1)C1COc2ccccc2O1 (stereo unspecified)	1.87%
O=C(CSc1ccncc1)Nc1ccc2ccccc2c1	-4.61%
C/C(=N\Nc1ncc(Cl)cc1Cl)c1ccccn1	65.6%
NC(N)=NC(=O)c1nc(Cl)c(N)nc1N	96.6%
COc1ccc(Cn2c(=O)[nH]c3cc(C(=O)NC4CCCC4)ccc3c2=O)cc1	14.8%
Nc1nc2ccc([N+](=O)[O-])c(N)c2s1	95.9%
CS(=O)(=O)N1CCN(c2ccccc2NC(=O)c2ccc(Br)o2)CC1	15.2%
O=C1NCCCc2c1oc1ccc(O)cc21	101%
O=C(CSc1ccc2nnc(-c3cccnc3)n2n1)c1ccccc1	-0.442%
Clc1cncc(Cl)c1N/N=C/c1ccncc1	83.8%
CSc1ccccc1C(=O)NCc1ccc(F)cc1	1.94%
Cc1cc(NCCCN)nc(-c2ccccc2O)n1	94.4%
CCC(=O)Nc1c2c(nn1-c1ccccc1C)CSC2	-1.23%
NC(=O)c1cn(C2OC(CO)C(O)C2O)c2ncnc(N)c12 (stereo unspecified)	102%
COC(=O)c1c(NC(=O)C2C3CCC(C3)C2C(=O)O)sc2c1CCCCC2 (stereo unspecified)	7.89%
Cc1c(C#N)c(N)nc(Cl)c1C#N	5.41%
CCCc1cc(=O)[nH]c(SCCCCN2C(=O)c3ccccc3C2=O)n1	0.534%
O=C1CSCN1c1cc(Cl)ccc1Cl	1.32%
CCOC(=O)c1sc(=NC(=O)CCS(=O)(=O)c2ccccc2)n(C)c1C	-2.41%
CC1Cc2ccccc2N1c1ncnc(N)c1[N+](=O)[O-] (stereo unspecified)	76.8%
Cn1cccc1C(=O)NC(=O)COC(=O)c1cc(S(=O)(=O)N2CCCCC2)ccc1Cl	-3.91%
O=C(Nc1ccc(CN2CCOCC2)cc1)c1ccc(-c2cccc(Cl)c2)o1	96.2%
Cc1cc(NC(=O)CCC(=O)N(Cc2ccco2)C(C(=O)NCC2CCCO2)c2ccncc2)no1 (stereo unspecified)	-0.875%
O=C(NNC1=Nc2cccc3cccc1c23)c1ccc(Br)cc1	-3.67%
O=C(O)c1cc(C(=O)C2CCCCC2)c[nH]1	3.08%
